{"source": "patent US20230172945A1", "about": "“APPLICATION OF COMPOUNDS IN CONTROLLING OR KILLING MITES” (SMILEBIOTEK ZHUHAI LIMITED, priority 2020, published 2023)", "tested_on": "D. folliculorum", "assay": "In-vitro culture of Demodex mites: effect of compounds on survival time", "format": "cell-based", "settings": "for Survival time: in vitro, 35 μL solution in 10% DMSO on glass slide, observed every 2 hours, mean ± spread; for Survival time / survival time of the Demodex mites in vitro: 20° C., humidity 96%; for survival time of the Demodex mites in vitro: compared with negative control 10% DMSO (80.79±25.34); for effect on survival time of mites as compared with the control group (in words): versus 10% DMSO negative control", "procedure": "The powders of the reference compounds shown in Table 1 were separately dissolved in dimethyl sulfoxide (DMSO), and then diluted with sterilized double-distilled water to make the final concentration of DMSO 10%, which could not shorten the survival time of Demodex mites as per a controlled study. The negative control group received DMSO mixed with sterilized water at a final concentration of 10%.\n35 μL of each solution was added to a glass slide, and the survival of the mites was observed under an optical microscope every 2 hours. During the experiment, the Demodex mites were observed by two skilled operators separately for the activities (bodies, limbs and the like) through the microscope to determine whether they were dead or not. If the two operators gave different results, the survival status was determined independently by a third skilled operator. The in-vitro culture was conducted in a climatic chamber at a temperature of 20° C. and a humidity of 96%. During the observation, the glass slides were transported in a wet box to ensure the high humidity.\nIn this experiment, statistical analysis was conducted using SPSS22.0 statistical software, normality test was conducted using Shapiro-Wilk test, and homogeneity of variance test was conducted using Bartlett's test.\nEffects of compounds on survival time of D. folliculorum The in-vitro culture of the Demodex mites was conducted in an environment at a humidity of 96% and a temperature of 20° C. The survival of the Demodex mites was observed dynamically and the survival time was recorded.", "data": [{"compound": "C=C[C@H]1[C@H](O[C@@H]2O[C@H](CO)[C@@H](O)[C@H](O)[C@H]2O)OC=C2C(=O)OCC[C@H]21", "note": "[Sweroside]", "values": [{"measurement": "Survival time", "value": "60.79 ± 25.98", "unit": "h"}]}, {"compound": "COc1ccc(-c2cc(=O)c3c(O)cc(O)cc3o2)cc1O", "note": "[Diosmetin]", "values": [{"measurement": "survival time of the Demodex mites in vitro", "value": "35.92±14.82"}, {"measurement": "Survival time", "value": "35.92 ± 14.82", "unit": "h"}, {"measurement": "effect on survival time of mites as compared with the control group (in words)", "value": "significantly shorten the survival time of mites"}]}, {"compound": "C=C(C)[C@@H]1CC[C@]2(C)CC[C@]3(C)[C@H](CC[C@@H]4[C@@]5(C)CCC(=O)C(C)(C)[C@@H]5CC[C@]43C)[C@@H]12", "note": "[Lupenone]", "values": [{"measurement": "Survival time", "value": "66.25 ± 31.22", "unit": "h"}]}, {"compound": "C=C(C)[C@@H]1CC[C@]2(C)[C@H](CC=C3[C@@H]4[C@@H](C)[C@H](C)CC[C@]4(C)CC[C@]32C)[C@@]1(C)CCC(=O)O", "note": "[Roburic acid]", "values": [{"measurement": "Survival time", "value": "63.41 ± 12.20", "unit": "h"}]}, {"compound": "C=C[C@@H]1C2=CCOC(=O)C2=CO[C@H]1O[C@@H]1O[C@H](CO)[C@@H](O)[C@H](O)[C@H]1O", "note": "[Gentiopicroside]", "values": [{"measurement": "survival time of the Demodex mites in vitro", "value": "37.31±36.06"}, {"measurement": "Survival time", "value": "37.31 ± 36.06", "unit": "h"}, {"measurement": "effect on survival time of mites as compared with the control group (in words)", "value": "significantly shorten the survival time of mites"}]}, {"compound": "C=C1CC[C@]2(C)CC[C@]3(C)[C@H](CC[C@@H]4[C@@]5(C)CC[C@H](OC(C)=O)C(C)(C)[C@@H]5CC[C@]43C)[C@H]2[C@@H]1C", "note": "[Taraxasterol acetate]", "values": [{"measurement": "survival time of the Demodex mites in vitro", "value": "37.91±20.96"}, {"measurement": "Survival time", "value": "34.14 ± 22.96", "unit": "h"}, {"measurement": "effect on survival time of mites as compared with the control group (in words)", "value": "significantly shorten the survival time of mites"}]}, {"compound": "C=C1CC[C@]2(C)CC[C@]3(C)[C@H](CC[C@@H]4[C@@]5(C)CC[C@H](O)C(C)(C)[C@@H]5CC[C@]43C)[C@H]2[C@@H]1C", "note": "[Taraxasterol]", "values": [{"measurement": "Survival time", "value": "68.28 ± 31.30", "unit": "h"}]}, {"compound": "CC1(C)CC[C@]2(C)CC=C3[C@]4(C)CC[C@H]5C(C)(C)C(=O)CC[C@]5(C)[C@H]4CC[C@@]3(C)[C@@H]2C1", "note": "[Taraxerone]", "values": [{"measurement": "Survival time", "value": "62.06 ± 28.97", "unit": "h"}]}, {"compound": "CC(=O)O[C@H]1CC[C@]2(C)[C@H]3CC[C@]4(C)C(=CC[C@@]5(C)CCC(C)(C)C[C@H]54)[C@]3(C)CC[C@H]2C1(C)C", "note": "[Taraxeryl acetate]", "values": [{"measurement": "Survival time", "value": "70.57 ± 27.45", "unit": "h"}]}, {"compound": "C=C[C@H]1[C@H](O[C@@H]2O[C@H](CO)[C@@H](O)[C@H](O)[C@H]2O)OC=C2C(=O)OCC[C@]21O", "note": "[Swertiamarin]", "values": [{"measurement": "Survival time", "value": "59.68 ± 10.97", "unit": "h"}]}, {"compound": "C[C@@H]1[C@H]2[C@H](O[C@@H]3O[C@H](CO)[C@@H](O)[C@H](O)[C@H]3O)OC=C(C(=O)O)[C@H]2C[C@@H]1O", "note": "[Loganic acid]", "values": [{"measurement": "Survival time", "value": "61.56 ± 22.84", "unit": "h"}]}, {"compound": "CC1(C)CC[C@]2(C)CC=C3[C@]4(C)CC[C@H]5C(C)(C)[C@@H](O)CC[C@]5(C)[C@H]4CC[C@@]3(C)[C@@H]2C1", "note": "[Taraxerol]", "values": [{"measurement": "survival time of the Demodex mites in vitro", "value": "37.91±20.96"}, {"measurement": "Survival time", "value": "37.91 ± 20.96", "unit": "h"}, {"measurement": "effect on survival time of mites as compared with the control group (in words)", "value": "significantly shorten the survival time of mites"}]}]}
